Reference: patent US20230365553A1, “COMPOUNDS AND COMPOSITIONS FOR TREATING CONDITIONS ASSOCIATED WITH STING ACTIVITY” (IFM Due, Inc., priority 2020, published 2023)

Target: T1, STING (Homo sapiens, UniProt Q86WV6, G230A/H232R/R293Q/R71H)
T1 construct: host or cells: THP1-Dual KO-IFNAR2 cells
Assay: STING reporter assay: luciferase reporter activity in THP1-Dual KO-IFNAR2 cells stimulated with 2′3′cGAMP
Assay type: cell-based
Details: 15 μM 2′3′cGAMP, 24h, read-out: hSTING EC50
Method in brief: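 THP1-Dual KO-IFNAR2 cells (2×10E6 cells/mL) were exposed to compounds at 0.0017-100 μM, then stimulated with 2′3′cGAMP (15 μM final) transfected via Lipofectamine 2000. After 24h at 37° C., secreted luciferase in supernatant was read by QUANTI-Luc luminescence; EC50 derived from concentration-response.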

T1 sequence (Q86WV6 whole entry R71H/G230A/H232R/R293Q): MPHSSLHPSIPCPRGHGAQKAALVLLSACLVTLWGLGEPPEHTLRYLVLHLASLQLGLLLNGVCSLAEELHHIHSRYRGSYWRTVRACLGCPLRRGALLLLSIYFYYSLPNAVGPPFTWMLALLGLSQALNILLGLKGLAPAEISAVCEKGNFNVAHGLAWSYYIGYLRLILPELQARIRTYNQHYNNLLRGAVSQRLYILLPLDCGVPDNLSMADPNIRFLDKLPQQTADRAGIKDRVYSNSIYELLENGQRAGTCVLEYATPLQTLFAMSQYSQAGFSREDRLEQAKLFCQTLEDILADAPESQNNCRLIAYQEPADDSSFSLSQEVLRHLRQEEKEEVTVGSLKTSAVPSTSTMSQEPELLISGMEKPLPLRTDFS

C[C@@H](O)C(=O)Nc1c[nH]c2cc(F)c(-c3cnn(-c4ccc(C(F)(F)F)cc4)c3)cc12 [Compound 192, (R)-N-(6-fluoro-5-(1-(4-(trifluoromethyl)phenyl)-1H-pyrazol-4-yl)-1H-indol-3-yl)-2-hydroxypropanamide]
EC50: 200 to 1000 nM

CCC(=O)Nc1c[nH]c2ccc(-c3cnn(-c4cccc(Cl)c4)c3)cc12 [Compound 149, N-(5-(1-(3-chlorophenyl)-1H-pyrazol-4-yl)-1H-indol-3-yl)propionamide]
EC50: 200 to 1000 nM

CCC(=O)Nc1c[nH]c2ccc(-c3ccnn3C)cc12 [Compound 142, N-(5-(1-methyl-1H-pyrazol-5-yl)-1H-indol-3-yl)propionamide]
EC50: 1000 to 5000 nM

CCc1ccc(-n2cc(-c3ccc4[nH]cc(NC(=O)C5CCCO5)c4c3)cn2)cc1 (stereo not drawn) [Compound 122, N-(5-(1-(4-ethylphenyl)-1H-pyrazol-4-yl)-1H-indol-3-yl)tetrahydrofuran-2-carboxamide]
EC50: 200 to 1000 nM

CCc1ccc(-n2cc(-c3ccc4[nH]cc(NC(=O)C(C)NC(=O)OC(C)(C)C)c4c3)cn2)cc1 (stereo not drawn) [Compound 114, tert-butyl (1-((5-(1-(4-ethylphenyl)-1H-pyrazol-4-yl)-1H-indol-3-yl)amino)-1-oxopropan-2-yl)carbamate]
EC50: 200 to 1000 nM

O=C(Nc1c[nH]c2ccc(-c3cnn(-c4ccc(C(F)(F)F)cc4)c3)cc12)C1(C(F)(F)F)CC1 [Compound 238, 1-(trifluoromethyl)-N-(5-(1-(4-(trifluoromethyl)phenyl)-1H-pyrazol-4-yl)-1H-indol-3-yl)cyclopropane-1-carboxamide]
EC50: 1000 to 5000 nM

CC(C)(C#N)C(=O)Nc1c[nH]c2ccc(-c3cnn(-c4ccc(C(F)(F)F)cc4)c3)cc12 [Compound 228, 2-cyano-2-methyl-N-(5-(1-(4-(trifluoromethyl)phenyl)-1H-pyrazol-4-yl)-1H-indol-3-yl)propanamide]
EC50: 1000 to 5000 nM

O=C(Nc1c[nH]c2ccc(-c3cnn(-c4ccc(C(F)(F)F)cc4)c3)cc12)C(CO)C(F)(F)F (stereo not drawn) [Compound 196, 3,3,3-trifluoro-2-(hydroxymethyl)-N-(5-(1-(4-(trifluoromethyl)phenyl)-1H-pyrazol-4-yl)-1H-indol-3-yl)propanamide]
EC50: 1000 to 5000 nM

CC(=O)N(C)CC(=O)Nc1c[nH]c2ccc(-c3cnn(-c4ccc(C(F)(F)F)cc4)c3)cc12 [Compound 225, N-methyl-N-(2-oxo-2-((5-(1-(4-(trifluoromethyl)phenyl)-1H-pyrazol-4-yl)-1H-indol-3-yl)amino)ethyl)acetamide]
EC50: 1000 to 5000 nM

CCC(=O)Nc1c[nH]c2ccc(-c3cnn(-c4ccc(C#N)cc4)c3)cc12 [Compound 101, N-(5-(1-(4-cyanophenyl)-1H-pyrazol-4-yl)-1H-indol-3-yl)propionamide]
EC50: 200 to 1000 nM

O=C1CC(C(=O)Nc2c[nH]c3ccc(-c4cnn(-c5ccc(C(F)(F)F)cc5)c4)cc23)CCN1 (stereo not drawn) [Compound 219, 2-oxo-N-(5-(1-(4-(trifluoromethyl)phenyl)-1H-pyrazol-4-yl)-1H-indol-3-yl)piperidine-4-carboxamide]
EC50: 1000 to 5000 nM

N#CC1(C(=O)Nc2c[nH]c3ccc(-c4cnn(-c5ccc(C(F)(F)F)cc5)c4)cc23)CCOCC1 [Compound 220, 4-cyano-N-(5-(1-(4-(trifluoromethyl)phenyl)-1H-pyrazol-4-yl)-1H-indol-3-yl)tetrahydro-2H-pyran-4-carboxamide]
EC50: 5000 to 100000 nM

C[C@@H](c1cccc(C(F)(F)F)c1)n1cc(-c2ccc3[nH]cc(NC(=O)C4CCC4)c3c2)cn1 [Compound 243, (S)-N-(5-(1-(1-(3-(trifluoromethyl)phenyl)ethyl)-1H-pyrazol-4-yl)-1H-indol-3-yl)cyclobutanecarboxamide]
EC50: 200 to 1000 nM

CC(=O)Nc1c[nH]c2ccc(-c3cnn(C(C)c4ccc(C(F)(F)F)cc4)c3)cc12 (stereo not drawn) [Compound 178, N-(5-(1-(1-(4-(trifluoromethyl)phenyl)ethyl)-1H-pyrazol-4-yl)-1H-indol-3-yl)acetamide]
EC50: 200 to 1000 nM

CCc1ccc(-n2cc(-c3ccc4[nH]cc(NC(=O)C5CCCCC5)c4c3)cn2)cc1 [Compound 123, N-(5-(1-(4-ethylphenyl)-1H-pyrazol-4-yl)-1H-indol-3-yl)cyclohexanecarboxamide]
EC50: 40 to 200 nM

CCC(=O)Nc1c[nH]c2ccc(C3=CCN(c4ccccn4)CC3)cc12 [Compound 140, N-(5-(3,6-dihydro-2H-[1,2′-bipyridin]-4-yl)-1H-indol-3-yl)propionamide]
EC50: 5000 to 100000 nM

CC(C)(N)CC(=O)Nc1c[nH]c2ccc(-c3cnn(-c4ccc(C(F)(F)F)cc4)c3)cc12 [Compound 189, 3-amino-3-methyl-N-(5-(1-(4-(trifluoromethyl)phenyl)-1H-pyrazol-4-yl)-1H-indol-3-yl)butanamide]
EC50: 5000 to 100000 nM

O=C(Nc1c[nH]c2ccc(-c3cnn(-c4ccc(C(F)(F)F)cc4)c3)cc12)c1cncs1 [Compound 268, N-(5-(1-(4-(trifluoromethyl)phenyl)-1H-pyrazol-4-yl)-1H-indol-3-yl)thiazole-5-carboxamide]
EC50: 200 to 1000 nM

CCc1ccc(-n2cc(-c3ccc4[nH]cc(NC(=O)CO)c4c3)cn2)cc1 [Compound 126, N-(5-(1-(4-ethylphenyl)-1H-pyrazol-4-yl)-1H-indol-3-yl)-2-hydroxyacetamide]
EC50: 200 to 1000 nM

CCc1ccc(-n2cc(-c3ccc4[nH]cc(NC(=O)C5COC5)c4c3)cn2)cc1 [Compound 112, N-(5-(1-(4-ethylphenyl)-1H-pyrazol-4-yl)-1H-indol-3-yl)oxetane-3-carboxamide]
EC50: 200 to 1000 nM

CC(=O)N1CCCC1C(=O)Nc1c[nH]c2ccc(-c3cnn(-c4ccc(C(F)(F)F)cc4)c3)cc12 (stereo not drawn) [Compound 226, 1-acetyl-N-(5-(1-(4-(trifluoromethyl)phenyl)-1H-pyrazol-4-yl)-1H-indol-3-yl)pyrrolidine-2-carboxamide]
EC50: 1000 to 5000 nM

O=C(Nc1c[nH]c2ccc(-c3cnn(-c4ccc(C(F)(F)F)cc4)c3)cc12)C1(O)CCC1 [Compound 202, 1-hydroxy-N-(5-(1-(4-(trifluoromethyl)phenyl)-1H-pyrazol-4-yl)-1H-indol-3-yl)cyclobutane-1-carboxamide]
EC50: 200 to 1000 nM

Cn1ccnc1C(=O)Nc1c[nH]c2ccc(-c3cnn(-c4ccc(C(F)(F)F)cc4)c3)cc12 [Compound 269, 1-methyl-N-(5-(1-(4-(trifluoromethyl)phenyl)-1H-pyrazol-4-yl)-1H-indol-3-yl)-1H-imidazole-2-carboxamide]
EC50: 1000 to 5000 nM

CCC(=O)Nc1c[nH]c2ccc(-c3ccc(N4CCCC4)nc3)cc12 [Compound 147, N-(5-(6-(pyrrolidin-1-yl)pyridin-3-yl)-1H-indol-3-yl)propionamide]
EC50: 5000 to 100000 nM

CCC(=O)Nc1c[nH]c2ccc(-c3cccc(COC)c3)cc12 [Compound 145, N-(5-(3-(methoxymethyl)phenyl)-1H-indol-3-yl)propionamide]
EC50: 5000 to 100000 nM

O=C(Nc1c[nH]c2ccc(-c3cnn(-c4ccc(C(F)(F)F)cc4)c3)cc12)c1ccc(=O)[nH]n1 [Compound 282, 6-oxo-N-(5-(1-(4-(trifluoromethyl)phenyl)-1H-pyrazol-4-yl)-1H-indol-3-yl)-1,6-dihydropyridazine-3-carboxamide]
EC50: 1000 to 5000 nM

CC(=O)Nc1c[nH]c2ccc(-c3cnn(-c4ccc(C5(C)CCCCC5)cc4)c3)cc12 [Compound 171, N-(5-(1-(4-(1-methylcyclohexyl)phenyl)-1H-pyrazol-4-yl)-1H-indol-3-yl)acetamide]
EC50: 1000 to 5000 nM

NC1(C(=O)Nc2c[nH]c3ccc(-c4cnn(-c5ccc(C(F)(F)F)cc5)c4)cc23)CC(F)(F)C1 [Compound 185, 1-amino-3,3-difluoro-N-(5-(1-(4-(trifluoromethyl)phenyl)-1H-pyrazol-4-yl)-1H-indol-3-yl)cyclobutane-1-carboxamide]
EC50: 5000 to 100000 nM

CCc1ccc(-n2cc(-c3ccc4[nH]cc(NC(=O)C5CCN(C(=O)OC(C)(C)C)C5)c4c3)cn2)cc1 (stereo not drawn) [Compound 108, tert-butyl 3-((5-(1-(4-ethylphenyl)-1H-pyrazol-4-yl)-1H-indol-3-yl)carbamoyl)pyrrolidine-1-carboxylate]
EC50: 200 to 1000 nM

O=C(Nc1c[nH]c2ccc(-c3cnn(-c4ccc(C(F)(F)F)cc4)c3)cc12)c1cn[nH]c1 [Compound 266, N-(5-(1-(4-(trifluoromethyl)phenyl)-1H-pyrazol-4-yl)-1H-indol-3-yl)-1H-pyrazole-4-carboxamide]
EC50: 200 to 1000 nM

O=C(Nc1c[nH]c2ccc(-c3cnn(-c4ccc(C(F)(F)F)cc4)c3)cc12)C1(F)CCC1 [Compound 241, 1-fluoro-N-(5-(1-(4-(trifluoromethyl)phenyl)-1H-pyrazol-4-yl)-1H-indol-3-yl)cyclobutane-1-carboxamide]
EC50: 200 to 1000 nM

Cn1cc(C(=O)Nc2c[nH]c3ccc(-c4cnn(-c5ccc(C(F)(F)F)cc5)c4)cc23)nn1 [Compound 279, 1-methyl-N-(5-(1-(4-(trifluoromethyl)phenyl)-1H-pyrazol-4-yl)-1H-indol-3-yl)-1H-1,2,3-triazole-4-carboxamide]
EC50: 200 to 1000 nM

CCC(=O)Nc1c[nH]c2ccc(-c3ccc(CN4CCOCC4)s3)cc12 [Compound 135, N-(5-(5-(morpholinomethyl)thiophen-2-yl)-1H-indol-3-yl)propionamide]
EC50: 5000 to 100000 nM

CCC(=O)Nc1c[nH]c2ccc(-c3cnn(-c4ccccc4)c3)cc12 [Compound 150, N-(5-(1-phenyl-1H-pyrazol-4-yl)-1H-indol-3-yl)propionamide]
EC50: 200 to 1000 nM

O=C(Nc1c[nH]c2ccc(-c3cnn(-c4ccc(C(F)(F)F)cc4)c3)cc12)C1CC(F)C1 (stereo not drawn) [Compound 190, 3-fluoro-N-(5-(1-(4-(trifluoromethyl)phenyl)-1H-pyrazol-4-yl)-1H-indol-3-yl)cyclobutane-1-carboxamide]
EC50: 5000 to 100000 nM

CCC(=O)Nc1c[nH]c2ccc(-c3cnn(-c4ccccn4)c3)cc12 [Compound 138, N-(5-(1-(pyridin-2-yl)-1H-pyrazol-4-yl)-1H-indol-3-yl)propionamide]
EC50: 5000 to 100000 nM
